Patent publication US7538131B2, “2-{-3-′2-(phenyl)-oxazol-4-ylmethoxymethyl-cyclohexylmethoxy}-propionic acid derivatives useful as peroxisome proliferator-activated receptor (PPAR) ligands for the treatment of hyperlipidemia and diabetes” (Sanofi-Aventis Deutschland GmbH, priority 2004, dated 2009)

Columns and labels:
human PPARgamma = molecular target: T1, human PPARgamma (Homo sapiens, UniProt P37231); assay: Cellular PPARgamma assay (transiently transfected HEK cells, luciferase reporter); format: cell-based; details: GAL4-humanPPARgammaLBD, firefly/Renilla luciferase ratio, 48 h
T1 construct: human PPARgamma receptor (amino acids 1152-Y475); expressed in transfected cells; host or cells: HEK cells (transiently transfected, pcDNA3-GAL4-humanPPARgammaLBD)
T1 sequence (P37231 182-477 isoform P37231-2 limits assumed): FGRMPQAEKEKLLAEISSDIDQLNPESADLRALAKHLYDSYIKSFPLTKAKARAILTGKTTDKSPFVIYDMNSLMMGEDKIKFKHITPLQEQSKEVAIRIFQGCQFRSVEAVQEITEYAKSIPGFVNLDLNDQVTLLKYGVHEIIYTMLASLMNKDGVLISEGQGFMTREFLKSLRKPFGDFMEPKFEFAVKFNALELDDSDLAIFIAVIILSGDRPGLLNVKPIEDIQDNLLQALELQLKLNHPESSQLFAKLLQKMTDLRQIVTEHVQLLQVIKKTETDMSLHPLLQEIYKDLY
Text: 4) Determination of EC50 Values of PPAR Agonists in the Cellular PPARgamma Assay
A transient transfection system is employed to determine the cellular PPARgamma activity of PPAR agonists. It is based on the use of a luciferase reporter plasmid (pGL3basic-5xGAL4-TK) and of a PPARgamma expression plasmid (pcDNA3-GAL4-humanPPARgammaLBD). Both plasmids are transiently transfected into human embryonic kidney cells (HEK cells). There is then expression in these cells of the fusion protein GAL4-humanPPARgammaLBD which binds to the GAL4 binding sites of the reporter plasmid. In the presence of a PPARgamma-active ligand, the activated fusion protein GAL4-humanPPARgammaLBD induces expression of the luciferase reporter gene, which can be detected in the form of a chemiluminescence signal after addition of a luciferase substrate. As a difference from the stably transfected PPARalpha reporter cell line, in the cellular PPARgamma assay the two components (luciferase reporter plasmid and PPARgamma expression plasmid) are transiently transfected into HEK cells because stable and permanent expression of the PPARgamma fusion protein is cytotoxic.
The luciferase reporter plasmid pGL3basic-5xGAL4-TK is based on the vector pGL3basic from Promega. The reporter plasmid is prepared by cloning five binding sites of the yeast transcription factor GAL4 (each binding site with the sequence 5′-CTCGGAGGACAGTACTCCG-3′), together with a 160 bp-long thymidine kinase promoter section (Genbank Accession #AF027128) 5′-upstream into pGL3basic. 3′-downstream of the thymidine kinase promoter is the complete luciferase gene from Photinus pyralis (Genbank Accession # Ml 5077), which is already a constituent of the plasmid pGL3basic used. The cloning and sequencing of the reporter plasmid pGL3basic-5xGAL4-TK took place in analogy to the description in Sambrook J. et. al. (Molecular cloning, Cold Spring Harbor Laboratory Press, 1989).
The PPARgamma expression plasmid pcDNA3-GAL4-humanPPARgammaLBD was prepared by first cloning the cDNA coding for amino acids 1-147 of the yeast transcription factor GAL4 (Genbank Accession #P04386) into the plasmid pcDNA3 (from Invitrogen) 3′-downstream of the cytomegalovirus promoter. Subsequently, the cDNA of the ligand-binding domain (LBD) of the human PPARgamma receptor (amino acids […]; Accession #g1480099) 3′-downstream of the GAL4 DNA binding domain was cloned. Cloning and sequencing of the PPARgamma expression plasmid pcDNA3-GAL4-humanPPARgammaLBD again took place in analogy to the description in Sambrook J. et. al. (Molecular cloning, Cold Spring Harbor Laboratory Press, 1989). Besides the luciferase reporter plasmid pGL3basic-5xGAL4-TK and the PPARgamma expression plasmid pcDNA3-GAL4-humanPPARgammaLBD, also used for the cellular PPARgamma assay are the reference plasmid pRL-CMV (from Promega) and the plasmid pBluescript SK(+) from Stratagene. All four plasmids were prepared using a plasmid preparation kit from Qiagen, which ensured a plasmid quality with a minimal endotoxin content, before transfection into HEK cells.
The activity of PPARgamma agonists is determined in a 4-day assay which is described below. Before the transfection, HEK cells were cultivated in DMEM medium (#41965-039, Invitrogen) which was mixed with the following additions: 10% FCS (#16000-044, Invitrogen),1% penicillin-streptomycin solution (#15140-122, Invitrogen) and 2 mM L-glutamine (#25030-024, Invitrogen).
Solution A, a transfection mixture which contains all four plasmids previously described in addition to DMEM medium, was prepared. […]

human PPARalpha = molecular target: T2, human PPARalpha (Homo sapiens, UniProt Q07869); assay: Cellular PPARalpha assay (stably transfected HEK luciferase reporter cell line); format: cell-based; details: GR-GAL4-humanPPARalpha-LBD, 24 h
T2 construct: human PPARalpha receptor (amino acids S167-Y468); expressed in transfected cells; host or cells: HEK cells (stably transfected, pcDNA3, CMV promoter)
T2 sequence (Q07869 167-468): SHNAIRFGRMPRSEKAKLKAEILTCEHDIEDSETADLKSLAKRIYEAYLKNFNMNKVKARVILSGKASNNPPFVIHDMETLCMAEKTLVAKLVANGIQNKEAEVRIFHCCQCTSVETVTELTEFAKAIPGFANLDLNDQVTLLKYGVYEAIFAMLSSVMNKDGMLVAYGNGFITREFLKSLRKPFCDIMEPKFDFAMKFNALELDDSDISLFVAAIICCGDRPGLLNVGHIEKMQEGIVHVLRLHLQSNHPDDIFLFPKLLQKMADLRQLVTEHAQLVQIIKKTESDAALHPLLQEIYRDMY
Experimental: 1) Determination of EC50 Values of PPAR Agonists in the Cellular PPARalpha Assay
The activity of the novel compounds of the present invention was tested as follows The potency of substances which bind to human PPARalpha and activate it in an agonistic manner is analyzed using a stably transfected HEK cell line (HEK=human embryo kidney) which is referred to here as PPARalpha reporter cell line. It contained two genetic elements, a luciferase reporter element (pdeltaM-GAL4-Luc-Zeo) and a PPARalpha fusion protein (GR-GAL4-humanPPARalpha-LBD) which mediates expression of the luciferase reporter element depending on a PPARalpha ligand. The stably and constitutively expressed fusion protein GR-GAL4-humanPPARalpha-LBD binds in the cell nucleus of the PPARalpha reporter cell line via the GAL4 protein portion to the GAL4 DNA binding motifs 5′-upstream of the luciferase reporter element which was stably integrated in the genome of the cell line. There is only little expression of the luciferase reporter gene without addition of a PPARalpha ligand if fatty acid-depleted fetal calf serum (cs-FCS) is used in the assay. PPARalpha ligands bind and activate the PPARalpha fusion protein and thereby bring about expression of the luciferase reporter gene. The luciferase which is formed can be detected by means of chemiluminescence via an appropriate substrate.
The PPARalpha reporter cell line was prepared in two steps. Firstly, the luciferase reporter element was constructed and stably transfected into HEK cells. For this purpose, five binding sites of the yeast transcription factor GAL4 (in each case 5′-CGGAGTACTGTCCTCCGAG-3′) were cloned in 5′-upstream of a 68 bp-long minimal MMTV promoter (Genbank Accession #V01175). The minimal MMTV promoter section contains a CCAAT box and a TATA element in order to enable efficient transcription by RNA polymerase II. The cloning and sequencing of the GAL4-MMTV construct took place in analogy to the description of Sambrook J. et. al. (Molecular Cloning, Cold Spring Harbor Laboratory Press, 1989). Which is hereby incorporated by reference herein.
The complete Photinus pyralis luciferase gene (Genbank Accession #M15077) was cloned in 3′-downstream of the GAL4-MMTV element. After sequencing, the luciferase reporter element consisting of five GAL4 binding sites, MMTV promoter and luciferase gene was subcloned into a plasmid which confers zeozin resistance in order to obtain the plasmid pdeltaM-GAL4-Luc-Zeo. This vector was transfected into HEK cells in accordance with the statements in Ausubel, F.M. et al. (Current Protocols in Molecular Biology, Vol. 1-3, John Wiley & Sons, Inc., 1995).
In a second step, the PPARalpha fusion protein (GR-GAL4-humanPPARalpha-LBD) was introduced into the stable cell clone described. For this purpose, initially the cDNA coding for the N-terminal 76 amino acids of the glucocorticoid receptor (Genbank Accession # P04150) was linked to the cDNA section coding for amino acids 1-147 of the yeast transcription factor GAL4 (Genbank Accession #P04386). The cDNA of the ligand-binding domain of the human PPARalpha receptor (amino acids S167-Y468; Genbank Accession #S74349) was cloned in at the 3′ end of this GR-GAL4 construct. The fusion construct prepared in this way (GR-GAL4-humanPPARalpha-LBD) was subcloned into the plasmid pcDNA3 (from Invitrogen) in order to enable constitutive expression therein by the cytomegalovirus promoter. This plasmid was linearized with a restriction endonuclease and stably transfected into the previously described cell clone containing the luciferase reporter element. The finished PPARalpha reporter cell line which contains a luciferase reporter element and constitutively expresses the PPARalpha fusion protein (GR-GAL4-humanPPARalpha-LBD) was isolated by selection with zeozin (0.5 mg/ml) and G418 (0.5 mg/ml).
The activity of PPARalpha agonists was determined in a 3-day assay which is described below: […]

Structure (SMILES)	EC50 (human PPARgamma)	EC50 (human PPARalpha)
CC(C)c1oc(-c2ccc3ccccc3c2)nc1COC[C@@H]1CCC[C@H](COC(C)(C)C(=O)O)C1 [Example 11, 2-{(1S,3R)-3-[5-Isopropyl-2-(naphtha-2-yl)oxazol-4-ylmethoxymethyl]cyclohexylmethoxy}-2-methylpropionic acid]	1790 nM	70.9 nM
Cc1oc(-c2ccc(-c3ccccc3)cc2)nc1COC[C@H]1CCC[C@@H](COC(C)(C)C(=O)O)C1 [Example 13, 2-[(1R,3S)-3-(2-Biphenyl-4-yl-5-methyloxazol-4-ylmethoxymethyl)cyclohexylmethoxy]-2-methylpropionic acid]	124 nM	313 nM
CC(C)c1oc(-c2cccc(C(F)(F)F)c2)nc1COC[C@H]1CCC[C@@H](COC(C)(C)C(=O)O)C1 [Example 16, 2-{(1R,3S)-3-[5-Isopropyl-2-(3-trifluoromethylphenyl)oxazol-4-ylmethoxymethyl]cyclohexylmethoxyl}-2-methylpropionic acid]	199 nM	12.7 nM
CC(C)c1oc(-c2ccc(C(C)(C)C)cc2)nc1COC[C@H]1CCC[C@@H](COC(C)(C)C(=O)O)C1 [Example 18, 2-{(1R,3S)-3-[2-(4-tert-butylphenyl)-5-isopropyloxazol-4-ylmethoxymethyl]cyclohexylmethoxy}-2-methylpropionic acid]	38.3 nM	20.5 nM
Cc1oc(-c2ccc(Oc3ccccc3)cc2)nc1COC[C@H]1CCC[C@@H](COC(C)(C)C(=O)O)C1 [Example 20, 2-Methyl-2-{(1R,3S)-3-[5-methyl-2-(4-phenoxyphenyl)oxazol-4-ylmethoxymethyl]cyclohexylmethoxy}propionic acid]	71.4 nM	149 nM

Now from value to molecule:

EC50 (human PPARgamma)	EC50 (human PPARalpha)	Structure (SMILES)
133 nM	5.5 nM	Cc1ccc(-c2nc(COC[C@H]3CCC[C@@H](COC(C)(C)C(=O)O)C3)c(C(C)C)o2)cc1C [Example 12, 2-{(1R,3S)-3-[2-(3,4-Dimethylphenyl)-5-isopropyloxazol-4-ylmethoxymethyl]cyclohexylmethoxy}-2-methylpropionic acid]
127 nM	18.7 nM	CC(C)c1oc(-c2ccc3ccccc3c2)nc1COC[C@H]1CCC[C@@H](COC(C)(C)C(=O)O)C1 [Example 14, 2-{(1R,3S)-3-[5-Isopropyl-2-(naphth-2-yl)oxazol-4-ylmethoxymethyl]cyclohexylmethoxy}-2-methylpropionic acid]
109 nM	42 nM	CC(C)Cc1ccc(-c2nc(COC[C@H]3CCC[C@@H](COC(C)(C)C(=O)O)C3)c(C(C)C)o2)cc1 [Example 17, 2-{(1R,3S)-3-[2-(4-Isobutylphenyl)-5-isopropyloxazol-4-ylmethoxymethyl]cyclohexylmethoxy}-2-methylpropionic acid]
192 nM	1.8 nM	CCc1oc(-c2ccc3ccccc3c2)nc1COC[C@H]1CCC[C@@H](COC(C)(C)C(=O)O)C1 [Example 19, 2-[(1R,3S)-3-(5-Ethyl-2-naphthalen-2-yl-oxazol-4-ylmethoxymethyl)cyclohexylmethoxy]-2-methylpropionic acid]
184 nM	1.6 nM	CCc1oc(-c2ccc(C)c(C)c2)nc1COC[C@H]1CCC[C@@H](COC(C)(C)C(=O)O)C1 [Example 21, 2-{(1R,3S)-3-[2-(3,4-Dimethylphenyl)-5-ethyloxazol-4-ylmethoxymethyl]cyclohexylmethoxyl}-2-methylpropionic acid]
